Laboratory results: patent US6459001B1 (Aventis Pharma S.A., priority 1997, dated 2002)
Structures can show the parent of a compound that is named as a salt.

Assays:
[1] = biological target: human αvβ3 receptor (Homo sapiens, UniProt P05106+P06756); assay: Displacement of the binding Vitronectin/Vitronectin receptor (αvβ3), competition test; conditions: human vitronectin coated plates, 3 hours at ambient temperature, read-out: Competition test Vn/VR (αvβ3) binding IC50 en
Description: 1—Study of the Products of the Invention on the Displacement of the Binding: Vitronectin/Vitronectin Receptor (αvβ3) […]
MaxiSorp 96-well plates are coated overnight at 4° C., with 100 μl of human Vitronectin (cf Yatohgo et al. Cell., Structure and fraction 13: 281-292 (1988)) at 2 μg/ml, (Dilution in coating buffer).
The next day, the wells are emptied and the ligands (Vitronectin) are then fixed (see fixing buffer) for one hour at ambient temperature under gentle agitation.
The wells are washed six times (see washing buffer), then the following are added to each well and in this order:
40 μl of incubation buffer, 10 μl of the dilution of the product to be tested, (the products are diluted in a 50/50 mixture of DMSO-H2O) 50 μl of human αvβ3 receptor (cf Pytela et al. Methods Enzymol (1987) 144:475) (dilution in incubation buffer, to be adapted according to the receptor batch and according to the ligand).
The ligand, the human αvβ3 receptor and the products to be studied are incubated for 3 hours at ambient temperature under gentle agitation.
The wells are again washed six times, then incubated for 2 hours at ambient temperature under gentle agitation, in the presence of 100 μl of anti-receptor, 4B12-HRP antibody coupled to a peroxidase (the 4B12-HRP antibody is diluted in an incubation buffer. The dilution is to be adapted according to the receptor batch).
This kit contains a bottle A of substrate (3,3′,5,5′-tetramethylbenzidine at 0.4 g/l) and a bottle B (H2O2 at 0.02% in a citrate/citric acid buffer). Extemporaneously, a volume of A is mixed with a volume of B, then the reaction mixture is distributed at a rate of 100 μl/well. The enzymatic reaction develops over […] for Vitronectin/αvβ3, then its development is stopped by the addition of 100 μl of 1M phosphoric acid. The optical density is measured at 450 nm. […]
coating buffer: Carbonate 0.05 M, NaOH pH 9.6 fixing buffer: PBS containing 0.5% BSA (pH 7.4) washing buffer: PBS containing 0.05% Tween 20 (pH 7.4)
Expression of the Results:
The following curve is traced: the percentage of binding of the human vitronectin as a function of the logarithm of the concentration of each product tested.
For each product the IC50 is determined according to the following formula:
BO=Maximum binding in the absence of any product
Bmin=Minimum binding in the presence of the highest concentration of product.

[2] = system: bone resorption (skullcaps of new-born mice); assay: Test of mouse calvarium: bone resorption by release of 45Ca from skullcaps of new-born mice, ex-vivo; conditions: inhibition of bone resorption (45Ca release) in half-calvaria, 48 hours contact; for inhibition at 10 µM: Mus musculus, read-out: Mouse cavarium % inhibition at 10 μM
From the text: 2—Test of Mouse Calvarium
Injection of a tracer dose of ^45Ca (CaCl2) to gestating female mice in order to study bone resorption by measuring the release of ^45Ca from the skullcaps of new-born mice.
Determination of the activity of a molecule on bone resorption, ex-vivo study.
Vehicle: DMSO, H2O/BSA (0.1%)
Dose: Variable ([…] in screening).
Echistatin (ref. H-9010-BACHEM)
^45Ca in the form of an aqueous solution of CaCl2—ref. CES3 AMERSHAM or NEZ-013 NEN.
Vehicle: Physiological serum
Dose: 25 μCi/mouse/0.4 ml
CMRL 1066 with phenol red (ref. 041-01535 M/GIBCO) supplemented by 0.1% BSA and penicillin/streptomycin.
1) Injection of ^45Ca to Gestating Mice (OF1, Strain: Swiss)
a) Preparation of the Labelled Solution:
190 μl of the mother solution of calcium at 2 mci/ml is added to 6 ml of physiological serum.
On the 17th day of gestation the mice receive 400 μl of this solution by intravenous route, that is 25 μCi/mouse.
2) Removal of the Tissue (Skullcap (Calvarium))
Six days after their birth the new-born mice are decapitated, then the head is recovered, and the skin is incised from the nape to the front. The skullcap is removed by cutting it out with scissors, and using a punch two exactly identical half-calvaria (one on the left and one on the right) are cut from the parietal bones. One will serve as the control, the other will be used to test the product to be studied.
Each half calvarium is placed in a well of a 24-well plate, containing 1 ml of medium, on a 100 μm polyethylene and nylex support, in order to avoid all contact with the bottom of the well.
After 24 hours, the polyethylene supports carrying the calvaria are transferred into new 24-well plates containing 1 ml of fresh medium and the products to be tested or their solvents. 200 μl of medium from the first plates is removed from each well and a first count of the radioactivity is carried out (value A).
This change of medium allows all the mechanical stress associated with the removal to be eliminated.
48 hours after putting the tissues in contact with the studied products, 200 μl of medium is removed from each well and counted (value B), so as to determine the quantity of ^45Ca released from the medium during the so-called resorption phase.
The calvarium is then completely demineralized in 1 ml of 5% trichloracetic acid and after digestion, 200 μl is also removed and counted so as to determine the quantity of calcium remaining in the bone (value C). Expression of the results
A % of bone resorption is calculated for each half-calvarium (each well) in the following manner:
% bone resorption=dpm B/dpm (A+B+C)×100
The sum of dpm A+B+C represents the quantity of ^45Ca incorporated in each bone part on the day of removal.
In order to measure the effect of a product, the ratio of the percentage of bone resorption of the treated well and of the corresponding control well is calculated for each point. The value found called the resorption index is comprised between 0 and 1 if the product inhibits bone resorption and is >1 if the product potentializes it. The average of the 6 indices (since there are 6 points/group) of each product is then calculated which gives one index/product. If this index is subtracted from the value 1, the inhibitory power of the product is obtained, which can be expressed as a percentage.
Furthermore a statistical test (Student T-test) is carried out by comparing point/point the individual resorption indices.

**Q.** Which IC50 [1] does the source give for `O=C(O)CCCOc1ccc2c(c1)CCC(=NNC1=NCCN1)C1=C2CCC1` [EX. 21, 4-(4((4,5-Dihydro-1H-imidazolin-2-yl)hydrazono)-1,2,3,4,5,6-hexahydro-8-benz(e)azulenyl)oxy)-butanoic Acid] here?
**A.** The IC50 was 37 nM.

**Q.** With `COc1c(OCCCCC(=O)O)cc2c(c1OC)C1=C(CCC1)C(=NNC1=NCCN1)CC2` [EX. 6, 5-(9,10-dimethoxy-1,2,3,4,5,6-hexahydro-4-(4,5-dihydro-1H-imidazolin-2-yl)hydrazono)-8-benz(e)azulenyl)oxy)-pentanoic Acid] as the compound, how does the IC50 [1] read?
**A.** The IC50 was 110 nM.

**Q.** What about the inhibition at 10 µM [2] of the same compound?
**A.** Its inhibition at 10 µM is 7.5%.

**Q.** For `COc1c(OCCCC(=O)O)cc2c(c1OC)C1=C(CCC1)C(=NNC1=NCCN1)CC2` [EX. 11, 4-(4((4,5-Dihydro-1H-imidazolin-2-yl)hydrazono)-9,10-dimethoxy-1,2,3,4,5,6-hexahydro-8-benz(e)azulenyl)oxy)-butanoic Acid], which IC50 [1] is on record?
**A.** The IC50 was 50 nM.

**Q.** What about the inhibition at 10 µM [2] of the same compound?
**A.** Its inhibition at 10 µM is 7%.

**Q.** How did the IC50 [1] turn out when `O=C(O)CCCOc1ccc2c(c1)C1=C(CCC1)C(=NNC1=NCCN1)CC2` [EX. 20, 4-((4((4,5-Dihydro-1H-imidazol-2-yl)hydrazono)-1,2,3,4,5,6-hexahydro-9-benz(e)azulenyl)oxy)-butanoic Acid] was run?
**A.** The IC50 was 79 nM.

**Q.** And the inhibition at 10 µM [2]?
**A.** Its inhibition at 10 µM is 11%.

**Q.** Which IC50 [1] does the source give for `O=C(NC(CCOc1ccc2c(c1)CCC(=NNC1=NCCN1)C1=C2CCC1)C(=O)O)OCc1ccccc1` (racemic) [EX. 25, O-[4-[(4,5-Dihydro-1H-imidazol-2-yl)hydrazono)-1,2,3,4,5,6-hexahydro-8-benz(e)azulenyl]-N-[(phenylmethoxy)-carbonyl]-DL-homoserine] here?
**A.** The IC50 was 13 nM.

**Q.** What about the inhibition at 10 µM [2] of the same compound?
**A.** The inhibition at 10 µM was 26%.

**Q.** Which IC50 [1] does the source give for `COc1c(OCCC(NS(=O)(=O)c2cccc3cccnc23)C(=O)O)cc2c(c1OC)C1=C(CCC1)C(=NNC1=NCCN1)CC2` (racemic) [EX. 28, O-[4-[(4,5-Dihydro1H-imidazol-2-yl)hydrazono]9,10-dimethoxy 1,2,3,4,5,6-hexahydro8-benz(e)azulenyl]N-[(8-quinolinyl)sulphonyl]DL-homoserine] here?
**A.** The IC50 was 15 nM.

**Q.** And the inhibition at 10 µM [2]?
**A.** The inhibition at 10 µM was 27%.

**Q.** How did the IC50 [1] turn out when `COc1c(OCCC(=O)O)cc2c(c1OC)C1=C(CCC1)C(=NNC1=NCCN1)CC2` [EX. 14, 3-(4((4,5-Dihydro-1H-imidazolin-2-yl)hydrazono)-9,10-dimethoxy-1,2,3,4,5,6-hexahydro-8-benz(e)azulenyl)oxy)-propanoic Acid] was run?
**A.** Its IC50 is 750 nM.

**Q.** What about the inhibition at 10 µM [2] of the same compound?
**A.** Its inhibition at 10 µM is 14%.

**Q.** How did the IC50 [1] turn out when “4-((4-(((Amino)iminomethyl)hydrazono)-9,10-dimethoxy-1,2,3,4,5,6-hexahydrobenz(e)azulen-8-yl)oxy)-pentanoic Acid [EX. 3]” was run?
**A.** Its IC50 is 2100 nM.

**Q.** With `COc1c(OCC(=O)C(C)(C)CC(=O)O)cc2c(c1OC)C1=C(CCC1)C(=NNC1=NCCN1)CC2` [EX. 10, 5-(4((4,5-Dihydro-1H-imidazolin-2-yl)hydrazono)-9,10-dimethoxy-1,2,3,4,5,6-hexahydro-S-benz(e)azulenyl)oxy)-3,3-dimethyl-4-oxo-pentanoic Acid] as the compound, how does the IC50 [1] read?
**A.** Its IC50 is 800 nM.

**Q.** What about the inhibition at 10 µM [2] of the same compound?
**A.** The inhibition at 10 µM was 8%.

**Q.** `COc1c(OCCCCCC(=O)O)cc2c(c1OC)C1=C(CCC1)C(=NNC1=NCCN1)CC2` [EX. 8, 6-(4((4,5-Dihydro-1H-imidazolin-2-yl)hydrazono)-9,10-dimethoxy-1,2,3,4,5,6-hexahydro-8-benz(e)azulenyl)oxy)-hexanoic Acid] was tested. Which IC50 [1] did it give?
**A.** The IC50 was 2790 nM.

**Q.** `COc1c(OCCC(NC(=O)OCc2ccccc2)C(=O)O)cc2c(c1OC)C1=C(CCC1)C(=NNC1=NCCCN1)CC2` (racemic) was tested. Which IC50 [1] did it give?
**A.** The IC50 was 6 nM.

**Q.** And the inhibition at 10 µM [2]?
**A.** Its inhibition at 10 µM is 30%.

**Q.** Which results are given for “4-((4-(((Amino)iminomethyl)hydrazono)-9,10-dimethoxy-1,2,3,4,5,6-hexahydrobenz(e)azulen-8-yl)oxy)-butanoic Acid [EX. 2]”?
**A.** IC50 [1]: 450 nM; Mouse cavarium % inhibition at 10 μM [2]: 19%

**Q.** `COc1c(OCCC(NC(=O)OCCCn2cnc(-c3cccnc3)c2)C(=O)O)cc2c(c1OC)C1=C(CCC1)C(=NNC1=NCCN1)CC2` (racemic) [EX. 29, Monohydrochloride of O-[4-[(4,5-Dihydro1H-imidazol-2-yl)hydrazono]9,10-dimethoxy1,2,3,4,5,6-hexahydro8-benz(e)azulenyl]N-[[3-[4-(3-pyridinyl)1H-imidazol-1-yl]propoxy]carbonyl]DL-homoserine] was tested. Which IC50 [1] did it give?
**A.** Its IC50 is 28 nM.

**Q.** And the inhibition at 10 µM [2]?
**A.** The inhibition at 10 µM was 18%.

**Q.** For `N=C(N)NN=C1CCc2cc(OCCCCC(=O)O)c3c(c2C2=C1CCC2)OCO3` [EX. 22, 5-((8-(((Amino)iminomethyl)hydrazono)-6,7,8,9,10,11-hexahydro-azuleno(5,6-d)-1,3-benzodioxol-4-yl)-oxy)-pentanoic Acid], which IC50 [1] is on record?
**A.** The IC50 was 2360 nM.

**Q.** Which IC50 [1] does the source give for `COc1c(OCCCC(=O)O)cc2c(c1OC)C1=C(CCC1)C(=NNC1=NCCCN1)CC2` [EX. 12, 4-((9,10-Dimethoxy-4-((1,4,5,6-tetrahydro-2-pyrimidinyl)hydrazono)-1,2,3,4,5,6-hexahydro-8-benz(e)-azulenyl)oxy)-butanoic Acid] here?
**A.** The IC50 was 350 nM.

**Q.** What about the inhibition at 10 µM [2] of the same compound?
**A.** The inhibition at 10 µM was 12%.

**Q.** For `COc1c(OCCC(NC(=O)OCc2ccccc2)C(=O)O)cc2c(c1OC)C1=C(CCC1)C(=NNC1=NC3CCCCC3N1)CC2` (racemic) [EX. 32, O-[9,10-Dimethoxy1,2,3,4,5,6-hexahydro4-[(3a,4,5,6,7,7a-hexahydro1H-benzimidazol-2-yl)hydrazono]8-benz(e)azulenyl]N-[(phenylmethoxy)carbonyl]DL-homoserine], which IC50 [1] is on record?
**A.** Its IC50 is 35 nM.

**Q.** What does the source list for `COc1c(OCCC(NC(=O)OCc2ccccc2)C(=O)OCC(O)CO)cc2c(c1OC)C1=C(CCC1)C(=NNC1=NCCCN1)CC2` (racemic) [EX. 27, (2,3-Dihydroxypropyl) Ester of O-(9,10-Dimethoxy1,2,3,4,5,6-hexahydro 4-[(1,4,5,6-tetrahydro2-pyrimidinyl)hydrazono]-8-benz(e)azulenyl]N-[(phenylmethoxy)carbonyl]DL-homoserine.]?
**A.** IC50 [1]: 170 nM; Mouse cavarium % inhibition at 10 μM [2]: 39%

**Q.** Which IC50 [1] does the source give for `COc1c(OCCC(NC(=O)OCc2ccccc2)C(=O)O)cc2c(c1OC)C1=C(CCC1)C(=NNC1=NCCN1)CC2` (racemic) [EX. 24, O-[4-[(4,5-dihydro-1H-imidazol-2-yl)hydrazono)-9,10-dimethoxy-1,2,3,4,5,6-hexahydro-8-benz(e)azulenyl]-N-[(phenylmethoxy)carbonyl]-DL-homoserine] here?
**A.** The IC50 was 30 nM.

**Q.** What about the inhibition at 10 µM [2] of the same compound?
**A.** The inhibition at 10 µM was 18%.
